The values below come from patent US20140227318A1, “SLEEP QUALITY IMPROVING AGENT” (LION CORPORATION, priority 2011, published 2014).

Assay [1] has as its system male C57BL/6 mice. As to the kind of experiment: Measurement of amount of activity of mice (sleep inducing effect). In kind it is in vivo, mouse. Particulars: oral; for CUMULATIVE AMOUNT OF ACTIVITY 6 HOURS AFTER ADMINISTRATION: n=8; for sleep inducing effect: conclusion from amount of activity. As to the method: To check the sleep inducing effect of the S-adenosylmethionine-containing yeast, the following test was performed using respective samples shown in TABLE 1.
The S-adenosylmethionine-containing yeast (the sample in Example 1) used was “AMee (trade name)” manufactured by IWATA CHEMICAL CO., LTD. “Nissin Super Camellia dry yeast (trade name)” manufactured by Nisshin Foods Inc. was used as a yeast containing no adenosylmethionine (the sample in Comparative Example 2). S-adenosylmethionine disulfate tosylate (the sample in Comparative Example 3) used was S-adenosylmethionine disulfate tosylate manufactured by CHEMaster. The sample in Comparative Example 2 and the sample in Comparative Example 3 were mixed and used as a mixture of the yeast containing no S-adenosylmethionine and S-adenosylmethionine disulfate tosylate (the sample in Comparative Example 4). S-adenosylmethionine chloride used in Comparative Example 5 (the sample in Comparative Example 5) was a reagent from
SIGMA. In each of Example 1 and Comparative Examples 2, 3, 4, and 5, a suspension of the sample in a 0.5% by mass aqueous methyl cellulose solution was prepared and used as a sample solution for an experiment. A 0.5% by mass aqueous methyl cellulose solution (the sample in Comparative Example 1) was used as a control solution.
When a sample has the function of inducing sleep, the amount of activity always decreases after administration of the sample. Therefore, the sleep inducing effect of each sample was evaluated by determining whether or not the administration of the sample solution to a mouse caused a reduction in the amount of activity.
8-Week old or 9-week old male C57BL/6 mice were purchased from Japan SLC, Inc. and acclimatized for 3 to 6 days. The amount of activity during acclimatization was used to divide the mice into administration groups. Immediately before the onset of the dark period, a sample solution or the control solution was orally administered in an amount of 10 mL/kg per body weight, and the amount of activity was measured for 24 hours after administration. Each administration group included 8 mice (n=8).
The amount of activity was measured under the following conditions. The mice were raised in individual cages, and an infrared camera was disposed above each cage. The imaging range of the infrared camera was divided into 64 sections, and the number of occurrences that the mouse crossed a section was measured. The number of occurrences was collected every 30 minutes.
In FIG. 2, “**” represents that a significant difference was found at p<0.01.

The conditions of assay [2]: intravenous injection or intramuscular injection; cited from earlier work.

With `C[S+](CC[C@H](N)C(=O)O)C[C@H]1O[C@@H](n2cnc3c(N)ncnc32)[C@H](O)[C@@H]1O.[Cl-]` (stereo partly drawn) [Comparative Example 5, S-adenosylmethionine chloride], the “CUMULATIVE AMOUNT OF ACTIVITY 6 HOURS AFTER ADMINISTRATION” value in assay [1] (150 mg/kg (137 mg/kg in terms of S-adenosylmethionine)) is on record as 7068 NUMBER OF OCCURRENCES/6 HOURS. Besides, the sleep inducing effect result in assay [1] was “no sleep inducing effect”.
On to “S-adenosylmethionine disulfate tosylate [Comparative Example 3]”, for which, in assay [2], the “influence on sleep onset latency” value is listed as “no influence” and the “length of NREM sleep (stage 4)” value is given as “extended”. Besides, the “CUMULATIVE AMOUNT OF ACTIVITY 6 HOURS AFTER ADMINISTRATION” value in assay [1] (293 mg/kg (150 mg/kg in terms of S-adenosylmethionine)) was 8618 NUMBER OF OCCURRENCES/6 HOURS. Besides, the sleep inducing effect result in assay [1] is “no sleep inducing effect”.
